# Patent US20140163061A1, “Methods For Reducing Blood Pressure” (FibroGen, Inc., priority 2008, published 2014)
# Test system: human subjects with chronic kidney disease
# Assay: Blood pressure in human CKD subjects over a four week period, weekly readings, Example 6
# Assay type: in vivo
# Procedure: Hypertension is a common condition in patients with chronic kidney disease. (Agarwal et al. (2005) Hypertension 46:514-520.) The effect of a compound of the present invention on blood pressure in anemic and non-anemic human subjects with advanced stage chronic kidney disease was examined. All study subjects had chronic kidney disease (CKD), defined as having a glomerular filtration rate (GFR)<59 ml/min. Some of these CKD subjects also had anemia, defined as having hemoglobin (Hb) levels<11 g/dL. Subjects were orally administered compound A or a placebo two or three times per week for four weeks. Blood pressure readings (i.e. systolic, diastolic, and mean arterial pressure) were taken at various times with a sphygmomanometer according to standard assessments. In another series of experiments, the effects of a medicament of the present invention on blood pressure in anemic and non-anemic subjects with chronic kidney disease were determined over a four week period. All subjects were orally administered compound A or a placebo two or three-times per week for four weeks and blood pressure readings were taken weekly. Table 6, Table 7, and Table 8 below show weekly changes in mean arterial pressure (MAP), systolic blood pressure (SBP), and diastolic blood pressure (DBP) following oral administration of compound A to human CKD subjects.
structure (smiles),measurement,setting,value
"Cc1nc(C(=O)NCC(=O)O)c(O)c2ccc(Oc3ccccc3)cc12 [A, [(4-hydroxy-1-methyl-7-phenoxy-isoquinoline-3-carbonyl)-amino]-acetic acid]",Mean change from Baseline Diastolic BP (mmHg),"All Subjects, Week 1",−3.66 mmHg
same,Mean change from Baseline MAP (mmHg),"All Subjects, Week 1",−4.28 mmHg
same,Mean change from Baseline Systolic BP (mmHg),"All Subjects, Week 1",−5.45 mmHg
same,Mean change from Baseline Diastolic BP (mmHg),"All Subjects, Week 2",−3.37 mmHg
same,Mean change from Baseline MAP (mmHg),"All Subjects, Week 2",−5.44 mmHg
same,Mean change from Baseline Systolic BP (mmHg),"All Subjects, Week 2",−9.47 mmHg
same,Mean change from Baseline Diastolic BP (mmHg),"All Subjects, Week 3",−1.53 mmHg
same,Mean change from Baseline MAP (mmHg),"All Subjects, Week 3",−4.03 mmHg
same,Mean change from Baseline Systolic BP (mmHg),"All Subjects, Week 3",−8.97 mmHg
same,Mean change from Baseline Diastolic BP (mmHg),"All Subjects, Week 4",−1.54 mmHg
same,Mean change from Baseline MAP (mmHg),"All Subjects, Week 4",−2.85 mmHg
same,Mean change from Baseline Systolic BP (mmHg),"All Subjects, Week 4",−5.54 mmHg
same,Mean change from Baseline Diastolic BP (mmHg),"Anemic, Week 1",−4.43 mmHg
same,Mean change from Baseline MAP (mmHg),"Anemic, Week 1",−4.57 mmHg
same,Mean change from Baseline Systolic BP (mmHg),"Anemic, Week 1",−4.80 mmHg
same,Mean change from Baseline Diastolic BP (mmHg),"Anemic, Week 2",−3.77 mmHg
same,Mean change from Baseline MAP (mmHg),"Anemic, Week 2",−6.13 mmHg
same,Mean change from Baseline Systolic BP (mmHg),"Anemic, Week 2",−10.77 mmHg
same,Mean change from Baseline Diastolic BP (mmHg),"Anemic, Week 3",−2.50 mmHg
same,Mean change from Baseline MAP (mmHg),"Anemic, Week 3",−5.47 mmHg
same,Mean change from Baseline Systolic BP (mmHg),"Anemic, Week 3",−11.40 mmHg
same,Mean change from Baseline Diastolic BP (mmHg),"Anemic, Week 4",−1.13 mmHg
same,Mean change from Baseline MAP (mmHg),"Anemic, Week 4",−3.08 mmHg
same,Mean change from Baseline Systolic BP (mmHg),"Anemic, Week 4",−7.25 mmHg
same,Mean change from Baseline Diastolic BP (mmHg),"Non-Anemic, Week 1",−2.00 mmHg
same,Mean change from Baseline MAP (mmHg),"Non-Anemic, Week 1",−3.67 mmHg
same,Mean change from Baseline Systolic BP (mmHg),"Non-Anemic, Week 1",−6.86 mmHg
same,Mean change from Baseline Diastolic BP (mmHg),"Non-Anemic, Week 2",−2.50 mmHg
same,Mean change from Baseline MAP (mmHg),"Non-Anemic, Week 2",−3.95 mmHg
same,Mean change from Baseline Systolic BP (mmHg),"Non-Anemic, Week 2",−6.67 mmHg
same,Mean change from Baseline Diastolic BP (mmHg),"Non-Anemic, Week 3",0.40 mmHg
same,Mean change from Baseline MAP (mmHg),"Non-Anemic, Week 3",−1.14 mmHg
same,Mean change from Baseline Systolic BP (mmHg),"Non-Anemic, Week 3",−4.10 mmHg
same,Mean change from Baseline Diastolic BP (mmHg),"Non-Anemic, Week 4",−2.20 mmHg
same,Mean change from Baseline MAP (mmHg),"Non-Anemic, Week 4",−2.48 mmHg
same,Mean change from Baseline Systolic BP (mmHg),"Non-Anemic, Week 4",−2.80 mmHg
